Non-standard residues stand in square brackets, D forms with d. No end group written: not given here.
Tests used:
[1] = molecular target: bovine serum albumin (BSA) (Bos taurus, UniProt P02769); test: Fluorescence quenching of BSA (Stern-Volmer, binding constant, Van't Hoff); conditions: for kq, biomolecular quenching rate constant / KSV, Stern-Volmer quenching constant: BSA 15 µM; for kq, biomolecular quenching rate constant: from KSV with τ0 about 5 ns; for KSV, Stern-Volmer quenching constant: excitation 280 nm; for ΔG of binding to BSA: ΔG=ΔH−TΔS
Excerpt: Fluorescence spectroscopy is a valuable tool for studying ligand-protein interactions. BSA contains two tryptophan residues, Trp134 and Trp213, which are located in sub-domain IB and sub-domain IIA, respectively. The maximum emission wavelength of BSA was found at 348 nm, and the intensity decreased regularly upon increasing the concentration of surfactin and metal-surfactin complexes. This interaction takes place adjacent to the Trp in BSA and changes the polarity around the fluorophore. This phenomenon is ascribed to the formation of surfactin/BSA and metal-surfactin/BSA complexes.
Figure 4 Fluorescence emission spectra of bovine serum albumin (BSA) with different concentrations of Cu^2+-surfactin (a), Zn^2+-surfactin (b), Mg^2+-surfactin (c), Ca^2+-surfactin (d) and surfactin (e). Conditions: BSA: 15 µM; metal-lipopeptide (a–g): 0, 10, 20, 50, 70, 100 and 120 µM; pH = 7.4; T =25 °C.
Fluorescence quenching can occur through dynamic and static mechanisms. Both dynamic and static quenching require molecular contact between the fluorophore and the quencher. The Stern–Volmer quenching (KSV) values decrease with an increase in temperature for static quenching, but the reverse effect is observed for dynamic quenching. Quenching parameters were calculated from the Stern–Volmer equation [34]:(1) F0/F=1+KSV[Q]=1+kqτ0[Q] where F0 and F are the fluorescence intensities in the absence and presence of surfactin or metal-surfactin complexes, respectively; KSV is the Stern–Volmer quenching constant; [Q] is the concentration of surfactin or metal-surfactin complexes; kq is the biomolecular quenching rate constant; and τ0 is the lifetime of the fluorophore. The fluorescence lifetime of BSA is about 5 ns. The KSV values obtained from the plot of [Q] versus F0/F (shown in Figure 5) were in the range from 6.696 × 10^3 to 7.787 × 10^3 M^−1 corresponding to the surfactin and metal-surfactin complexes.
For the static quenching interaction, the binding constant (Kb) and the number of binding sites (n) can be determined by the following equation:(2) log[(F0−F)/F]=logKb+nlog[Q] where F0 and F are the fluorescence intensities in the absence and presence of surfactin or metal-surfactin complexes, respectively, and [Q] is the concentration of surfactin or metal-surfactin complexes. Binding constants obtained from the plot of log [Q] versus log [(F0−F)/F] (Figure 6) corresponding to surfactin and metal-surfactin complexes ranged from 0.746 × 10^4 to 1.315 × 10^4 M^−1. […] Regarding the binding constants (Kb), surfactin has values higher than all the tested metal-surfactin complexes. […] The above results are similar to those reported for metal-amphisin/BSA [27].
Thermodynamic parameters for a binding interaction can be used as major evidence for the nature of intermolecular forces. There are four types of interaction forces, which could play a role in ligand binding to proteins: Van der Waals forces, hydrophobic forces, electrostatic interactions and hydrogen bonds. Thermodynamic parameters relying on temperatures were analyzed to characterize the acting force between surfactin and metal-surfactin complexes with BSA. To obtain such information, the thermodynamic parameters were calculated from the Van’t Hoff relation:(3) lnK=−ΔH^0/RT+ΔS^0/R (4) ΔG^0=ΔH^0−TΔS^0=−RTlnK where K is the binding constant, R is the gas constant and T is the experimental temperature. ΔH denotes the enthalpy change and ΔS denotes the entropy change of the binding process. The ΔH and ΔS values were calculated from the slope and intercept of the Van’t Hoff plot (Figure S2), respectively. The negative sign for ΔG means that the interaction process is spontaneous. […] This observation is supported by the docking results.
The fluorescence quenching spectra were obtained with a Varian Cary eclipse fluorescence spectrophotometer. […]

[2] = Surface tension measurements (du Noüy ring), CMC determination; assay type: physicochemical; conditions: du Noüy ring tensiometry, 10 mM Hepes buffer pH 7.4, 25 °C, metal ions 0.1 mM where present, triplicate
Method: For the pure surfactin in the Hepes buffer without divalent counterions, the critical micelle concentration (CMC) value was 0.045 mM. Regarding the effect of divalent cations, Ca^2+ decreased the CMC value of surfactin-C15 more than the other cations. Compared with the surfactin-C15 solution without metal ions, the CMC of Ca^2+-surfactin decreased from 0.045 mM to 0.017 mM. The addition of 0.1 mM of Cu^2+, Mg^2+ and Zn^2+ to surfactin-C15 reduced the CMCs to 0.033 mM, 0.036 mM and 0.038 mM, respectively. All the tested metal ions led to reductions of the surface tension of surfactin-C15 at the CMC (γcmc), being the highest reductions obtained with Cu^2+ and Ca^2+ (from 28.4 mN·m^−1 up to 24.5 and 25.1 mN·m^−1, respectively). The peptide ring of surfactin adopts a “horsesaddle” structure in solution, with the two charged residues forming a “claw”, which is a potential binding site for divalent cations.
Figure 3 Surface tension profiles of surfactin and metal-surfactin complexes in Hepes buffer (pH 7.4) at 25 °C. The values represent the mean of triplicates ± SD.
The surface tension (γ) measurements were performed at room temperature (25 °C) according to the du Noüy’s ring method using a KRÜSS K20 Tensiometer (KRÜSS GmbH, Hamburg, Germany). […] The surface tension data were analyzed using the Origin software provided with the equipment to obtain the CMC values.

[3] = Micelle size by dynamic light scattering (DLS); assay type: physicochemical; conditions: 10 mM Hepes pH 7.4, 25 °C
Excerpt: For example, it is known that the addition of metal ions decreases the CMC of surfactin. This is probably related with two important competing forces during the micellization process. Electrostatic interactions, which are responsible for the repulsion of hydrophilic groups of the lipopeptide inhibit the formation of micelles. On the other hand, hydrophobic interactions are responsible for initiation of micellization through exclusion of fatty acid chains from the aqueous environment. The presence of divalent cations additionally supports the self-assembly process. […] In the case of the Cu^2+-surfactin system, Vmic^PM6 is twice lower than in the case of the free lipopeptide. Such big differences influence the aggregation number. Generally, Nagg decreases after binding of cations. The experimental micelle volumes and hydrodynamic radii with their theoretically calculated counterparts and aggregation numbers are shown in Table 1. The experimental (RH^DLS) and theoretically calculated (RH^PM6) hydrodynamic radii of surfactin-C15 were 2.46 nm and 2.40 nm, respectively. Addition of Cu^2+, Zn^2+, Mg^2+ and Ca^2+ reduces the size of the microstructures. In this study, we observed the largest modifications of surfactin-C15 conformation due to the binding of Cu^2+; in that case RH^DLS and RH^PM6 were 1.82 nm and 1.80 nm, respectively. […]

[4] = 25 °C, pH 7.4, from plot of log[(F0−F)/F] versus log[Q]
[5] = Van't Hoff plot over 25, 30, 37 °C

Sequence of bovine serum albumin (BSA) (P02769 25-607): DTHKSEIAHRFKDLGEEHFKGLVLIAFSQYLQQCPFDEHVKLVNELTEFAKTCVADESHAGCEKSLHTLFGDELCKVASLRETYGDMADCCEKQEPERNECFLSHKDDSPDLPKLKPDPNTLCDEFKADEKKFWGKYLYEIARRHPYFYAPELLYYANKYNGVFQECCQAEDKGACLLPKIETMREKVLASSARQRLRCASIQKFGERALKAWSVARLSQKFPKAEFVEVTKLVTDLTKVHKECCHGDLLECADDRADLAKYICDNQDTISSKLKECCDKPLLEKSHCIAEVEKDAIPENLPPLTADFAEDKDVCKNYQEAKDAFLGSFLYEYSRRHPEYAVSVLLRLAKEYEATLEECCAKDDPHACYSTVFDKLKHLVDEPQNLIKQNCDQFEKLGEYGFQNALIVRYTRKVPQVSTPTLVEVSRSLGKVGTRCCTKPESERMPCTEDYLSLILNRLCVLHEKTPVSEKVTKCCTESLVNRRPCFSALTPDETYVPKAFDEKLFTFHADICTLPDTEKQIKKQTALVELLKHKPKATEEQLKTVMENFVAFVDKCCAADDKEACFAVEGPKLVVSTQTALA

## EL[dL]VD[dL]L (also: lariat or depsi (positions not given here)) [Surfactin, surfactin-C15, cyclic lipopeptide biosurfactant from Bacillus subtilis #309; heptapeptide closed to a lactone ring by a C15 β-hydroxyl fatty acid]
[1]; [4]
  Kb, binding constant with BSA: 13150 M⁻¹
  n, number of binding sites on BSA: 1.07
[1]; T 25 °C, pH 7.4
  kq, biomolecular quenching rate constant: 1.339e+12 M⁻¹ s⁻¹
[1]; T 25 °C, pH 7.4, quencher 0-120 µM
  KSV, Stern-Volmer quenching constant: 6696 M⁻¹
[1]; T 25 °C
  ΔG of binding to BSA: -5.22 kcal/mol
[1]; T 30 °C, pH 7.4
  KSV, Stern-Volmer quenching constant: 4926 M⁻¹
  kq, biomolecular quenching rate constant: 9.852e+11 M⁻¹ s⁻¹
[1]; T 30 °C
  ΔG of binding to BSA: -5.112 kcal/mol
[1]; T 37 °C, pH 7.4
  KSV, Stern-Volmer quenching constant: 3147 M⁻¹
  kq, biomolecular quenching rate constant: 6.294e+11 M⁻¹ s⁻¹
[1]; T 37 °C
  ΔG of binding to BSA: -4.964 kcal/mol
[1]; [5]
  ΔH of binding to BSA: -11.57 kcal/mol
  ΔS of binding to BSA: −89.20 J·mol^−1·K^−1
[2]; surfactin-C15 0.003-0.12 mM
  critical micelle concentration (CMC): 0.045 mM
[2]
  surface tension at the CMC (γcmc): 28.4 mN·m^−1
[3]; DLS, 173° backscatter, mean of 9 replicates ± SD
  RH^(DLS), hydrodynamic radius of micelles: 2.46 ± 0.03 nm
[3]; Vmic(DLS)=4/3·π·(RH(DLS))^3, from DLS radius
  Vmic^(DLS), micelle volume: 62.36 nm^3

Reference: article PMC6627489, “Metal-Biosurfactant Complexes Characterization: Binding, Self-Assembly and Interaction with Bovine Serum Albumin” (International Journal of Molecular Sciences, 2019)
